Test results as given in US12478001B2, “Plant activator containing amino acid or salt thereof, and oligosaccharide, and use thereof” (priority 2019, dated 2025).

Assays:
Format in all cases: in vivo
komatsuna [1] = experiment: Evaluation of komatsuna elicitor activity (glucanase activity measurement); conditions: komatsuna grown 6 days on MS agar medium containing plant vitalizer; glucanase activity (Abs590) of leaf extract; control = Comparative Example 3 without vitalizer
Method: (i) The plant is sampled and pretreated; (ii) a calibration curve is drawn using BSA as the protein standard (using absorbance at a wavelength (600 nm) in a dye binding method); (iii) the protein concentration of the specimen prepared in (i) is measured; (iv) the glucanase activity of the specimen prepared in (i) is measured.
Each oligosaccharide prepared in [1. Preparation of oligosaccharide] and each amino acid prepared in [2. […] Each stock solution was diluted 1000-fold with water and used for the following cultivation test.
Murashige and Skoog (MS) agar medium was used for raising of the komatsuna.
High-pressure steam sterilized MS medium was transferred into a plant box on a clean bench and thoroughly cooled, and then komatsuna (“Wakami”, Sakata Seed Corp.) were seeded in a count of 10 each. They were then grown for 6 days with long-day conditions of 24 hours in a lighted room at 22° C.
After adding 300 μl of the prepared protein extraction buffer into a 1.5 ml tube equipped with a Biomasher (Nippi, Inc.), leaves (plant body) sampled and cut with scissors to approximately 4×4 mm were added. The procedure was carried out 5 times for each sample. A stirring rod was then rotated by hand to break up the plant body until the solid portion was generally no longer visible. Centrifugal separation was carried out under conditions of 15,000×g, 10 minutes, 4° C., and the aqueous layer was collected into a fresh 1.5 ml tube to prepare a liquid extract.
A 2 mg/ml portion of bovine serum albumin (BSA) of known purity was serially diluted (1/2, 1/4, 1/8, 1/16, 1/32 and 1/64 dilution) to prepare standards. The prepared standards were used to determine the average absorbance at 600 nm (Abs600), and a calibration curve was drawn (n=3). After injecting 300 μl of Coomassie Brilliant Blue (CBB) solution into a 96-well plate, 6 μl of the prepared liquid extract was added. The Abs600 was then measured. The blank used was MilliQ. The absorbance of the liquid extract was fitted onto the calibration curve drawn with the 2 mg/ml of serially diluted BSA, to determine the protein concentration.
Dilution was carried out to a constant liquid extract concentration using the determined values, and the diluted extract was used for the following glucanase activity measurement.
In a 1.5 ml tube there were mixed 100 μl of a B-HS substrate solution prepared by suspending one tablet of B-HS reagent (Megazyme Co.) in 10 ml of MilliQ, 50 μl of 0.2 M phosphate buffer solution (pH 6.0) and 50 μl of the previously prepared diluted solution or ultrapure water (blank), to prepare samples for each of the Comparative Examples and Examples. Enzyme reaction was conducted for 1 hour and 30 minutes in a water bath at 30° C., shaking the sample well every 15 minutes. A 100 μl portion of 0.2 N NaOH as reaction stop solution (total: 300 μl) was added to stop the reaction.

frill lettuce = experiment: Frill lettuce hydroponic cultivation test, root dry weight; conditions: hydroponics, 60 days cultivation, percentage with non-added group root dry weight as 100%, vitalizer 50-100 ppm by mass
Method: Each oligosaccharide prepared in [1. Preparation of oligosaccharide] and each amino acid prepared in [2. Preparation of amino acids] were dissolved in water while stirring with a stirrer in a compositional ratio to 1000 times the plant vitalizer concentration (ppm by mass) in Comparative Examples 1 and 2 and Examples 1 and 6 to 7 listed in the tables, after which the bacteria were removed with a 0.45 μm filter, to obtain plant vitalizer stock solutions.
In the test groups, 150 g of each of the plant vitalizer stock solutions under different conditions was added to and dispersed in 150 L of culture solution prepared for hydroponics (1000-fold dilution), and cultivation was started for each of 120 varieties at a temperature of 20 to 22° C. Cultivation was carried out for a total of 60 days, with a total of 5 times every week after beginning further addition of 150 g of plant vitalizer stock solution, and the root dry weights of the frill lettuce were measured.
The root dry weights were determined by cutting the root parts, drying the cut roots with a constant temperature dryer for 12 hours at 50° C., and then measuring the weights.
The root dry weights in Table 1 are percentages (%) with respect to 100% as the root dry weight in the non-added group without plant vitalizer addition.

komatsuna [2] = experiment: Measurement of komatsuna fresh weight after foliar application; conditions: komatsuna raised 34 days in soil, vitalizer applied to leaves at one-week intervals; control = Comparative Example 11 without vitalizer
Method: Each oligosaccharide prepared in [1. […] Each stock solution was diluted 1000-fold with water and used for the following cultivation test. A sample was prepared with […] Corp.) as the plant crop, organic vegetable soil (Hirota Shoten) as the soil and Shin-Taki Organic Liquid Fertilizer #3 (Taki Chemical Co., Ltd.) as the fertilizer. After sprouting the plants on filter paper, they were planted into a 25-hole connected pot (280×280 mm overall, with holes of 50×50×50 mm) containing culturing soil and fertilizer.

Compound	Elicitor activity (compared to control as 100) (komatsuna [1])	Fresh weight (compared to control as 100) (komatsuna [2])	further results
N=C(N)NCCC[C@H](N)C(=O)O [compound 10, Arginine]	79		
NCCCC[C@H](N)C(=O)O [Comparative Example 6, Lysine]	104		
C[C@H](N)C(=O)O [compound 9, Alanine]	72		
N[C@@H](CCC(=O)[O-])C(=O)[O-].[Na+].[Na+] [compound 7, Sodium glutamate]	82		
N[C@@H](Cc1c[nH]cn1)C(=O)O [compound 8, Histidine]	89		
NCC(=O)O [compound 5, Glycine]	141		
NCC(=O)O [Comparative Example 2, Glycine]			Increase in root dry weight with respect to non-added group (measured n = 5) (frill lettuce): 112%
N[C@@H](CCC(=O)[O-])C(=O)[O-].[Na+].[Na+] [compound 14, Sodium glutamate]		89%	
N[C@@H](Cc1c[nH]cn1)C(=O)O [compound 12, Histidine]		92%	
NCC(=O)O [compound 13, Glycine]		102%	
